Measurements as given in publication PMC5645021 (Organic letters, 2014).

What was measured:
Type in all cases: cell-based
SW620 Ad300 = test: MTT cytotoxicity, SW620 Ad300; details: for FR (fold resistance): IC50 ratio for SW620 Ad300 versus SW620; for IC50: read-out: MTT cytotoxicity SW620 Ad300 IC50, P-gp overexpressing daughter cell line SW620 Ad300; for FR (fold resistance), control study: SW620 Ad300 versus SW620
[1] = target: oncogenic mutant K-Ras (mGFP-K-RasG12 V) (Homo sapiens, UniProt P01116, G12V); test: K-Ras PM mislocalization; details: for K-Ras PM mislocalization Emax: maximum extent of mislocalization of K-Ras from the PM to the endomembrane, MDCK cells; for IC50: read-out: K-Ras PM mislocalization IC50, mGFP-K-RasG12V in intact MDCK cells
oncogenic mutant K-Ras (mGFP-K-RasG12 V), sequence (P01116 1-188 isoform P01116-2 G12V): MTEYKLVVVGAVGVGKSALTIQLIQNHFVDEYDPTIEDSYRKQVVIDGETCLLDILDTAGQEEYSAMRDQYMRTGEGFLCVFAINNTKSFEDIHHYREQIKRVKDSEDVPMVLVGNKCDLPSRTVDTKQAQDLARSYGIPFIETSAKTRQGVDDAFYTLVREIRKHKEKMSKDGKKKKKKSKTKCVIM

SW620 = test: MTT cytotoxicity, SW620; details: read-out: MTT cytotoxicity SW620 IC50; colon cancer cell line SW620
A549 versus H522 = test: Cytotoxicity toward K-Ras mutated versus non-mutated lung cancer cells; details: human lung cancer cells

CC(C)[C@@H]1OC(=O)[C@@H](NC(=O)c2cccc(NC=O)c2O)[C@H](C)OC(=O)[C@H](C(C)C)OC(=O)C(C)(C)[C@@H](O)[C@@H](Cc2ccccc2)OC1=O [compound 2, neoantimycin F]
FR (fold resistance) (SW620 Ad300): 3.8
IC50 (SW620 Ad300): 610 nM
K-Ras PM mislocalization Emax [1]: 0.56 ± 0.01
IC50 [1]: 9.9 ± 0.2 nM
IC50 (SW620): 160 nM

CC[C@H](C)[C@@H]1OC(=O)C(C)(C)C(=O)[C@@H](Cc2ccccc2)OC(=O)[C@H](C(C)C)OC(=O)[C@@H](NC(=O)c2cccc(NC=O)c2O)[C@@H](C)OC1=O [compound 4, neoantimycin H]
FR (fold resistance) (SW620 Ad300): 2.7
IC50 (SW620 Ad300): 190 nM
K-Ras PM mislocalization Emax [1]: 0.60 ± 0.02
IC50 [1]: 6.4 ± 0.5 nM
IC50 (SW620): 70 nM

CCCCCC[C@H]1C(=O)O[C@H](C)[C@H](NC(=O)c2cccc(NC=O)c2O)C(=O)O[C@@H](C)[C@@H]1OC(=O)C(C)C [compound 5, antimycin A2a, reference compound]
increased cytotoxicity toward K-Ras mutated A549 versus non-mutated H522 (A549 versus H522): > 26 fold
FR (fold resistance) (SW620 Ad300): 2.1
IC50 (SW620 Ad300): 320 nM
K-Ras PM mislocalization Emax [1]: 0.78 ± 0.02
IC50 [1]: 7.9 ± 0.3 nM
IC50 (SW620): 150 nM

COc1cccc2c1C(=O)c1c(O)c3c(c(O)c1C2=O)C[C@@](O)(C(=O)CO)C[C@@H]3O[C@H]1C[C@H](N)[C@H](O)[C@H](C)O1 [doxorubicin]
FR (fold resistance), control study (SW620 Ad300; coadministration with the P-gp inhibitor verapamil): 2.4
FR (fold resistance), control study (SW620 Ad300; doxorubicin alone): 22

CCC(C)[C@@H]1OC(=O)[C@H](C)OC(=O)[C@@H](NC(=O)c2cccc(NC=O)c2O)[C@@H](C)OC(=O)[C@H](CC(C)C)OC(=O)C(C)(C)C(=O)[C@H](CC(C)C)NC1=O (stereo partly drawn) [compound 7, respirantin, reference compound]
increased cytotoxicity toward K-Ras mutated A549 versus non-mutated H522 (A549 versus H522): > 33 fold
FR (fold resistance) (SW620 Ad300): 3.0
IC50 (SW620 Ad300): 30 nM
K-Ras PM mislocalization Emax [1]: 0.78 ± 0.02
IC50 [1]: 0.7 ± 0.1 nM
IC50 (SW620): 10 nM

CC[C@H](C)[C@@H]1OC(=O)C(C)(C)[C@@H](O)[C@@H](Cc2ccccc2)OC(=O)[C@H](C(C)C)OC(=O)[C@@H](NC(=O)c2cccc(NC=O)c2O)[C@H](C)OC1=O [compound 1, neoantimycin]
increased cytotoxicity toward K-Ras mutated A549 versus non-mutated H522 (A549 versus H522): 50 fold
FR (fold resistance) (SW620 Ad300): 3.8
IC50 (SW620 Ad300): 230 nM
K-Ras PM mislocalization Emax [1]: 0.60 ± 0.03
IC50 [1]: 2.9 ± 0.7 nM
IC50 (SW620): 60 nM

CCCC[C@H]1C(=O)O[C@H](C)[C@H](NC(=O)c2cccc(NC=O)c2O)C(=O)O[C@@H](C)[C@@H]1OC(=O)C(C)C [compound 6, antimycin A4a, reference compound]
FR (fold resistance) (SW620 Ad300): 3.7
IC50 (SW620 Ad300): 440 nM
K-Ras PM mislocalization Emax [1]: 0.79 ± 0.02
IC50 [1]: 3.7 ± 0.3 nM
IC50 (SW620): 120 nM

CCC(C)C1OC(=O)C(NC(=O)c2cccc(NC=O)c2O)C(C)OC(=O)C(C(C)CC)OC(=O)C(C)(C)C(O)C(Cc2ccccc2)OC1=O (stereo not drawn) [compound 3, neoantimycin G]
IC50 (SW620 Ad300): 260 nM
K-Ras PM mislocalization Emax [1]: 0.62 ± 0.01
IC50 [1]: 7.9 ± 0.5 nM
IC50 (SW620): 40 nM
